tested on: Leishmania donovani; experiment: Antileishmanial activity against Leishmania donovani 9515 (MHOM/IN/95/9151) promastigote incubated for 48 hrs by resazurin dye based plate reader assay; format: functional, organism-based; settings: not given

Structure (SMILES)	IC50 [µM]
C#CCn1cc(/C=N\N=C/CC)c2cc([N+](=O)[O-])ccc21	> 10
C#CCn1cc(\C=N/N=C/C(C)=C\C)c2cc([N+](=O)[O-])ccc21	10.5
C#CCn1cc(/C=N\N=C/CCC)c2cc([N+](=O)[O-])ccc21	> 10
C#CCn1cc(/C=N/N=C\C=C(C)C)c2cc([N+](=O)[O-])ccc21	10

tested on: not listed separately; experiment: Cytotoxicity against human […]-differentiated THP-1 cells incubated for 72 hrs by resazurin dye based assay; format: toxicity, cell-based; settings: not given

Structure (SMILES)	IC50 at 72 h [µM]
C#CCn1cc(/C=N\N=C/CC)c2cc([N+](=O)[O-])ccc21	> 100
C#CCn1cc(\C=N/N=C/C(C)=C\C)c2cc([N+](=O)[O-])ccc21	> 100
C#CCn1cc(/C=N\N=C/CCC)c2cc([N+](=O)[O-])ccc21	43.9
C#CCn1cc(/C=N/N=C\C=C(C)C)c2cc([N+](=O)[O-])ccc21	92.6

tested on: Trypanosoma brucei brucei; experiment: Trypanocidal activity against Trypanosoma brucei brucei GUTat3.1 incubated for 72 hrs by CellTiter-Glo reagent based […] analysis; format: functional, organism-based; settings: GUTat3.1, 72 h

Structure (SMILES)	IC50 [µM]
C#CCn1cc(/C=N\N=C/CC)c2cc([N+](=O)[O-])ccc21	78.8
C#CCn1cc(\C=N/N=C/C(C)=C\C)c2cc([N+](=O)[O-])ccc21	> 81.2
C#CCn1cc(/C=N\N=C/CCC)c2cc([N+](=O)[O-])ccc21	> 84.4
C#CCn1cc(/C=N/N=C\C=C(C)C)c2cc([N+](=O)[O-])ccc21	37.4

tested on: not listed separately; experiment: Selectivity index, ratio of CC50 for MDBK to IC50 for Trypanosoma brucei gambiense IL1922; format: toxicity, cell-based; settings: cattle, MDBK cells; read-out: Ratio CC50/IC50

Structure (SMILES)	selectivity ratio
C#CCn1cc(/C=N\N=C/CC)c2cc([N+](=O)[O-])ccc21	> 6.86
C#CCn1cc(/C=N/N=C\C=C(C)C)c2cc([N+](=O)[O-])ccc21	2.04

tested on: not listed separately; experiment: Cytotoxicity against MDBK cells incubated for 72 hrs by CCK8 assay; format: toxicity, cell-based, Bos taurus; settings: cattle, MDBK cells

Structure (SMILES)	CC50 at 72 h [µM]
C#CCn1cc(/C=N\N=C/CC)c2cc([N+](=O)[O-])ccc21	> 354
C#CCn1cc(\C=N/N=C/C(C)=C\C)c2cc([N+](=O)[O-])ccc21	> 281
C#CCn1cc(/C=N\N=C/CCC)c2cc([N+](=O)[O-])ccc21	> 338

same assay, conditions: cattle, mdbk, 72 h

Structure (SMILES)	CC50 [µM]
C#CCn1cc(/C=N/N=C\C=C(C)C)c2cc([N+](=O)[O-])ccc21	> 325

tested on: not listed separately; experiment: Selectivity index, ratio of IC50 for human THP-1 cells to IC50 for leishmanicidal activity against Leishmania donovani 9515 (MHOM/IN/95/9151) amastigote; format: toxicity, cell-based; settings: read-out: Ratio IC50

Structure (SMILES)	selectivity ratio
C#CCn1cc(\C=N/N=C/C(C)=C\C)c2cc([N+](=O)[O-])ccc21	> 59
C#CCn1cc(/C=N/N=C\C=C(C)C)c2cc([N+](=O)[O-])ccc21	90

tested on: Trypanosoma equiperdum; experiment: Trypanocidal activity against Trypanosoma equiperdum IVM-t1 incubated for 72 hrs by CellTiter-Glo reagent based […] analysis; format: functional, organism-based; settings: IVM-t1, 72 h

Structure (SMILES)	IC50 [µM]
C#CCn1cc(/C=N\N=C/CC)c2cc([N+](=O)[O-])ccc21	56.1
C#CCn1cc(\C=N/N=C/C(C)=C\C)c2cc([N+](=O)[O-])ccc21	> 81.2
C#CCn1cc(/C=N\N=C/CCC)c2cc([N+](=O)[O-])ccc21	> 84.4
C#CCn1cc(/C=N/N=C\C=C(C)C)c2cc([N+](=O)[O-])ccc21	27

tested on: not listed separately; experiment: Selectivity index, ratio of CC50 for MDBK to IC50 for Trypanosoma congolense IL3000; format: toxicity, cell-based; settings: cattle, MDBK cells; read-out: Ratio CC50/IC50

Structure (SMILES)	selectivity ratio
C#CCn1cc(/C=N/N=C\C=C(C)C)c2cc([N+](=O)[O-])ccc21	2.41

tested on: Leishmania donovani; experiment: Leishmanicidal activity against Leishmania donovani 9515 (MHOM/IN/95/9151) amastigote infected in THP-1 cells incubated for 72 hrs by resazurin dye based plate reader assay; format: functional, organism-based; settings: THP-1, 72 h

Structure (SMILES)	IC50 [µM]
C#CCn1cc(/C=N\N=C/CC)c2cc([N+](=O)[O-])ccc21	> 10
C#CCn1cc(\C=N/N=C/C(C)=C\C)c2cc([N+](=O)[O-])ccc21	1.7
C#CCn1cc(/C=N\N=C/CCC)c2cc([N+](=O)[O-])ccc21	> 10
C#CCn1cc(/C=N/N=C\C=C(C)C)c2cc([N+](=O)[O-])ccc21	1.03

tested on: not listed separately; experiment: Selectivity index, ratio of CC50 for MDBK to IC50 for Trypanosoma brucei brucei GUTat3.1; format: toxicity, cell-based; settings: cattle, MDBK cells; read-out: Ratio CC50/IC50

Structure (SMILES)	selectivity ratio
C#CCn1cc(/C=N\N=C/CC)c2cc([N+](=O)[O-])ccc21	> 4.49
C#CCn1cc(/C=N/N=C\C=C(C)C)c2cc([N+](=O)[O-])ccc21	1.82

tested on: not listed separately; experiment: Selectivity index, ratio of CC50 for MDBK to IC50 for Trypanosoma brucei rhodesiense IL1501; format: toxicity, cell-based; settings: cattle, MDBK cells; read-out: Ratio CC50/IC50

Structure (SMILES)	selectivity ratio
C#CCn1cc(/C=N\N=C/CC)c2cc([N+](=O)[O-])ccc21	> 4.72
C#CCn1cc(/C=N\N=C/CCC)c2cc([N+](=O)[O-])ccc21	> 6.96
C#CCn1cc(/C=N/N=C\C=C(C)C)c2cc([N+](=O)[O-])ccc21	1.96

tested on: not listed separately; experiment: Selectivity index, ratio of CC50 for MDBK to IC50 for Trypanosoma evansi Tansui; format: toxicity, cell-based; settings: cattle, MDBK cells; read-out: Ratio CC50/IC50

Structure (SMILES)	selectivity ratio
C#CCn1cc(/C=N\N=C/CC)c2cc([N+](=O)[O-])ccc21	> 6.39
C#CCn1cc(/C=N/N=C\C=C(C)C)c2cc([N+](=O)[O-])ccc21	1.72

tested on: not listed separately; experiment: Cytotoxicity against green monkey Vero cells incubated for 48 hrs by resazurin dye based assay; format: toxicity, cell-based; settings: African green monkey (Chlorocebus sabaeus)

Structure (SMILES)	IC50 at 48 h [µM]
C#CCn1cc(/C=N\N=C/CC)c2cc([N+](=O)[O-])ccc21	> 100
C#CCn1cc(\C=N/N=C/C(C)=C\C)c2cc([N+](=O)[O-])ccc21	84.2
C#CCn1cc(/C=N\N=C/CCC)c2cc([N+](=O)[O-])ccc21	> 100
C#CCn1cc(/C=N/N=C\C=C(C)C)c2cc([N+](=O)[O-])ccc21	80.3

tested on: Trypanosoma brucei rhodesiense; experiment: Trypanocidal activity against Trypanosoma brucei rhodesiense IL1501 incubated for 72 hrs by CellTiter-Glo reagent based […] analysis; format: functional, organism-based; settings: IL1501, 72 h

Structure (SMILES)	IC50 [µM]
C#CCn1cc(/C=N\N=C/CC)c2cc([N+](=O)[O-])ccc21	75.1
C#CCn1cc(\C=N/N=C/C(C)=C\C)c2cc([N+](=O)[O-])ccc21	> 81.2
C#CCn1cc(/C=N\N=C/CCC)c2cc([N+](=O)[O-])ccc21	48.5
C#CCn1cc(/C=N/N=C\C=C(C)C)c2cc([N+](=O)[O-])ccc21	34.7

tested on: not listed separately; experiment: Selectivity index, ratio of CC50 for MDBK to IC50 for Trypanosoma equiperdum IVM-t1; format: toxicity, cell-based; settings: cattle, MDBK cells; read-out: Ratio CC50/IC50

Structure (SMILES)	selectivity ratio
C#CCn1cc(/C=N\N=C/CC)c2cc([N+](=O)[O-])ccc21	> 6.3
C#CCn1cc(/C=N/N=C\C=C(C)C)c2cc([N+](=O)[O-])ccc21	2.53

tested on: not listed separately; experiment: Selectivity index, ratio of IC50 for african green monkey Vero cells to IC50 for static antileishmanial activity against Leishmania donovani 9515 (MHOM/IN/95/9151) amastigote; format: toxicity, cell-based; settings: read-out: Ratio IC50

Structure (SMILES)	selectivity ratio
C#CCn1cc(\C=N/N=C/C(C)=C\C)c2cc([N+](=O)[O-])ccc21	226
C#CCn1cc(/C=N/N=C\C=C(C)C)c2cc([N+](=O)[O-])ccc21	152

tested on: Trypanosoma evansi; experiment: Trypanocidal activity against Trypanosoma evansi Tansui incubated for 72 hrs by CellTiter-Glo reagent based […] analysis; format: functional, organism-based; settings: not given

Structure (SMILES)	IC50 [µM]
C#CCn1cc(/C=N\N=C/CC)c2cc([N+](=O)[O-])ccc21	55.4
C#CCn1cc(\C=N/N=C/C(C)=C\C)c2cc([N+](=O)[O-])ccc21	> 81.2
C#CCn1cc(/C=N\N=C/CCC)c2cc([N+](=O)[O-])ccc21	> 84.4
C#CCn1cc(/C=N/N=C\C=C(C)C)c2cc([N+](=O)[O-])ccc21	39.6

tested on: not listed separately; experiment: Selectivity index, ratio of IC50 for african green monkey Vero cells to IC50 for leishmanicidal activity against Leishmania donovani 9515 (MHOM/IN/95/9151) amastigote; format: toxicity, cell-based; settings: read-out: Ratio IC50

Structure (SMILES)	selectivity ratio
C#CCn1cc(\C=N/N=C/C(C)=C\C)c2cc([N+](=O)[O-])ccc21	50
C#CCn1cc(/C=N/N=C\C=C(C)C)c2cc([N+](=O)[O-])ccc21	78

tested on: not listed separately; experiment: Selectivity index, ratio of IC50 for human THP-1 cells to IC50 for static antileishmanial activity against Leishmania donovani 9515 (MHOM/IN/95/9151) amastigote; format: toxicity, cell-based; settings: read-out: Ratio IC50

Structure (SMILES)	selectivity ratio
C#CCn1cc(\C=N/N=C/C(C)=C\C)c2cc([N+](=O)[O-])ccc21	313
C#CCn1cc(/C=N/N=C\C=C(C)C)c2cc([N+](=O)[O-])ccc21	175

tested on: Trypanosoma congolense; experiment: Trypanocidal activity against Trypanosoma congolense IL3000 incubated for 72 hrs by CellTiter-Glo reagent based […] analysis; format: functional, organism-based; settings: IL3000, 72 h

Structure (SMILES)	IC50 [µM]
C#CCn1cc(/C=N\N=C/CC)c2cc([N+](=O)[O-])ccc21	> 88.6
C#CCn1cc(\C=N/N=C/C(C)=C\C)c2cc([N+](=O)[O-])ccc21	> 81.2
C#CCn1cc(/C=N\N=C/CCC)c2cc([N+](=O)[O-])ccc21	> 84.4
C#CCn1cc(/C=N/N=C\C=C(C)C)c2cc([N+](=O)[O-])ccc21	28.3

tested on: Trypanosoma brucei gambiense; experiment: Trypanocidal activity against Trypanosoma brucei gambiense IL1922 incubated for 72 hrs by CellTiter-Glo reagent based […] analysis; format: functional, organism-based; settings: IL1922, 72 h

Structure (SMILES)	IC50 [µM]
C#CCn1cc(/C=N\N=C/CC)c2cc([N+](=O)[O-])ccc21	51.6
C#CCn1cc(\C=N/N=C/C(C)=C\C)c2cc([N+](=O)[O-])ccc21	> 81.2
C#CCn1cc(/C=N\N=C/CCC)c2cc([N+](=O)[O-])ccc21	> 84.4
C#CCn1cc(/C=N/N=C\C=C(C)C)c2cc([N+](=O)[O-])ccc21	33.4

tested on: Leishmania donovani; experiment: Antileishmanial activity against Leishmania donovani 9515 (MHOM/IN/95/9151) amastigote infected in THP-1 cells assessed as inhibition of parasite growth incubated for 72 hrs by resazurin dye based plate reader assay; format: functional, organism-based; settings: THP-1, 72 h

Structure (SMILES)	IC50 [µM]
C#CCn1cc(/C=N\N=C/CC)c2cc([N+](=O)[O-])ccc21	> 10
C#CCn1cc(\C=N/N=C/C(C)=C\C)c2cc([N+](=O)[O-])ccc21	0.32
C#CCn1cc(/C=N\N=C/CCC)c2cc([N+](=O)[O-])ccc21	> 10
C#CCn1cc(/C=N/N=C\C=C(C)C)c2cc([N+](=O)[O-])ccc21	0.53

tested on: not listed separately; experiment: Selectivity index, ratio of IC50 for human THP-1 cells to IC50 for Leishmania donovani 9515 (MHOM/IN/95/9151) promastigote; format: toxicity, cell-based; settings: read-out: Ratio IC50

Structure (SMILES)	selectivity ratio
C#CCn1cc(\C=N/N=C/C(C)=C\C)c2cc([N+](=O)[O-])ccc21	10
C#CCn1cc(/C=N/N=C\C=C(C)C)c2cc([N+](=O)[O-])ccc21	9

tested on: not listed separately; experiment: Selectivity index, ratio of IC50 for african green monkey Vero cells to IC50 for Leishmania donovani 9515 (MHOM/IN/95/9151) promastigote; format: toxicity, cell-based; settings: read-out: Ratio IC50

Structure (SMILES)	selectivity ratio
C#CCn1cc(\C=N/N=C/C(C)=C\C)c2cc([N+](=O)[O-])ccc21	8
C#CCn1cc(/C=N/N=C\C=C(C)C)c2cc([N+](=O)[O-])ccc21	8
